Laboratory results from patent US20130177609A1, “Compositions and Methods for Increasing Bioavailability of Topical Ophthalmic Drugs” (priority 2008, published 2013).
Read-outs that look alike come from different tables or passages of the source.

Assay: Example 2: ocular tissue pharmacokinetics after topical dose, decreasing dose volume at same total amount of drug
Format: in vivo, New Zealand Composite pigmented rabbits
Conditions: for DNAUC / AUC(0-t) / Cmax / Tmax: topical ocular; for exposure (absolute Cmax and AUC): constant 10 μg dose, varying volume/concentration
Procedure: This study was carried out using a non-crossover design involving a total of 84 New Zealand Composite pigmented rabbits arbitrarily divided into 3 groups of 28 rabbits each. Three compositions were prepared as aqueous suspensions substantially as disclosed above comprising 1, 0.33, and 0.1 mg/mL BOL-303242-X, respectively. Each composition also contained 100 mg/mL PEG 3350 and 10 mg/mL Tween® 80. The compositions were shipped to the test site as a ready-to-use suspension.
The test compositions were administered so as to achieve 10-μg topical dosed drug amount in each eye of all the study animals. The concentration of the composition and the instillation volume were varied between the three study groups to keep the dosed drug amount constant. Animals in Group 1 received 10 μL/eye of the 1.0 mg/mL composition; animals comprising Groups 2 and 3 received 30 μL/eye of the 0.33 mg/mL composition and 100 μL/eye of the 0.1 mg/mL composition, respectively.
At predetermined time intervals after dosing, rabbits (four per collection time) were euthanized after anesthetization and the eyes enucleated and dissected. Tear, aqueous humor, conjunctiva, cornea, and iris/ciliary body samples were collected from both eyes of each animal and stored frozen until being shipped on dry ice to the analytical laboratory. Samples were collected at 0.083, 0.25, 0.5, 1, 2, 4, and 6 hours after dosing. BOL-303242-X concentrations in the above tissues and matrices were determined by LC/MS/MS. For the purpose of calculating mean concentrations, a value of ½ the LLQ was assigned to all samples with concentrations below the LLQ (BLQ). In addition, any sample with a measured concentration that was more than 10-fold higher than the median concentration in the respective sample pool was considered an outlier, and was not included in any calculations. Similarly, concentrations that were 10-fold lower than the median value and below the LLQ were also considered to be outliers. The number of study samples that were determined to be outliers using the above criteria for each tissue/matrix in this study was: tears=14/144; conjunctiva=3/144; cornea=1/144; aqueous humor 2/144 and iris=4/144 samples.
Pharmacokinetic analysis of the composite concentration-versus-time data was performed using non-compartmental methods (WinNonlin version 5.2). Due to the destructive nature of the sampling regimen employed in this study, average composite data were used in the pharmacokinetic analysis.

[1] = Conjunctiva, 10 μL/eye of 1 mg/mL (10 μg)
[2] = Conjunctiva, 30 μL/eye of 0.33 mg/mL (10 μg)
[3] = Conjunctiva, 100 μL/eye of 0.1 mg/mL (10 μg)
[4] = Cornea, 10 μL/eye of 1 mg/mL (10 μg)
[5] = Cornea, 30 μL/eye of 0.33 mg/mL (10 μg)
[6] = Cornea, 100 μL/eye of 0.1 mg/mL (10 μg)
[7] = Iris/Ciliary Body, 30 μL/eye of 0.33 mg/mL (10 μg)
[8] = Iris/Ciliary Body, 100 μL/eye of 0.1 mg/mL (10 μg)
[9] = New Zealand Composite pigmented, rabbit, aqueous humor, topical or ocular, 10 ug, 10 μL/eye of 1 mg/mL (10 μg)
[10] = New Zealand Composite pigmented, rabbit, aqueous humor, topical or ocular, 10 ug, 30 μL/eye of 0.33 mg/mL (10 μg)
[11] = New Zealand Composite pigmented, rabbit, aqueous humor, topical or ocular, 10 ug, 100 μL/eye of 0.1 mg/mL (10 μg)
[12] = New Zealand Composite pigmented, rabbit, conjunctiva, topical or ocular, 10 ug, 10 μL/eye of 1 mg/mL (10 μg)
[13] = New Zealand Composite pigmented, rabbit, conjunctiva, topical or ocular, 10 ug, 30 μL/eye of 0.33 mg/mL (10 μg)
[14] = New Zealand Composite pigmented, rabbit, conjunctiva, topical or ocular, 10 ug, 100 μL/eye of 0.1 mg/mL (10 μg)
[15] = New Zealand Composite pigmented, rabbit, cornea, topical or ocular, 10 ug, 10 μL/eye of 1 mg/mL (10 μg)
[16] = New Zealand Composite pigmented, rabbit, cornea, topical or ocular, 10 ug, 30 μL/eye of 0.33 mg/mL (10 μg)
[17] = New Zealand Composite pigmented, rabbit, cornea, topical or ocular, 10 ug, 100 μL/eye of 0.1 mg/mL (10 μg)
[18] = New Zealand Composite pigmented, rabbit, iris/ciliary body, topical or ocular, 10 ug, 30 μL/eye of 0.33 mg/mL (10 μg)
[19] = New Zealand Composite pigmented, rabbit, iris/ciliary body, topical or ocular, 10 ug, 100 μL/eye of 0.1 mg/mL (10 μg)
[20] = New Zealand Composite pigmented, rabbit, tears, topical or ocular, 10 ug, 10 μL/eye of 1 mg/mL (10 μg)
[21] = New Zealand Composite pigmented, rabbit, tears, topical or ocular, 10 ug, 30 μL/eye of 0.33 mg/mL (10 μg)
[22] = New Zealand Composite pigmented, rabbit, tears, topical or ocular, 10 ug, 100 μL/eye of 0.1 mg/mL (10 μg)
[23] = Tears, 10 μL/eye of 1 mg/mL (10 μg)
[24] = Tears, 30 μL/eye of 0.33 mg/mL (10 μg)
[25] = Tears, 100 μL/eye of 0.1 mg/mL (10 μg)

- DNAUC (Aqueous Humor, 10 μL/eye of 1 mg/mL (10 μg)): 0.800 ng*hr/g ÷ μg dose
- DNAUC (Aqueous Humor, 30 μL/eye of 0.33 mg/mL (10 μg)): 0.300 ng*hr/g ÷ μg dose
- DNAUC (Aqueous Humor, 100 μL/eye of 0.1 mg/mL (10 μg)): 0.700 ng*hr/g ÷ μg dose
- AUC(0-t) [1]: 0.742 µg·h/g
- DNAUC [1]: 74.2 ng*hr/g ÷ μg dose
- AUC(0-t) [2]: 0.575 µg·h/g
- DNAUC [2]: 57.5 ng*hr/g ÷ μg dose
- AUC(0-t) [3]: 0.212 µg·h/g
- DNAUC [3]: 21.2 ng*hr/g ÷ μg dose
- AUC(0-t) [4]: 1.01 µg·h/g
- DNAUC [4]: 101 ng*hr/g ÷ μg dose
- AUC(0-t) [5]: 1.02 µg·h/g
- DNAUC [5]: 102 ng*hr/g ÷ μg dose
- AUC(0-t) [6]: 0.745 µg·h/g
- DNAUC [6]: 74.5 ng*hr/g ÷ μg dose
- DNAUC (Iris/Ciliary Body, 10 μL/eye of 1 mg/mL (10 μg)): 27.3 ng*hr/g ÷ μg dose
- AUC(0-t) (Iris/Ciliary Body, 10 μL/eye of 1 mg/mL (10 μg), heavily influenced by 2 animals at 2 hour): 0.273 µg·h/g
- AUC(0-t) [7]: 0.0206 µg·h/g
- DNAUC [7]: 2.06 ng*hr/g ÷ μg dose
- AUC(0-t) [8]: 0.0186 µg·h/g
- DNAUC [8]: 1.86 ng*hr/g ÷ μg dose
- AUC(0-t) (New Zealand Composite pigmented, rabbit, aqueous humor, topical or ocular, 10 ug, Aqueous Humor, 10 μL/eye of 1 mg/mL (10 μg), read-out: AUC(0-t)): 8 ng·h/mL
- AUC(0-t) (New Zealand Composite pigmented, rabbit, aqueous humor, topical or ocular, 10 ug, Aqueous Humor, 30 μL/eye of 0.33 mg/mL (10 μg), read-out: AUC(0-t)): 3 ng·h/mL
- AUC(0-t) (New Zealand Composite pigmented, rabbit, aqueous humor, topical or ocular, 10 ug, Aqueous Humor, 100 μL/eye of 0.1 mg/mL (10 μg), read-out: AUC(0-t)): 7 ng·h/mL
- Cmax [9]: 0.17 ng/mL
- Tmax [9]: 120 min
- Cmax [10]: 0.188 ng/mL
- Tmax [10]: 120 min
- Cmax [11]: 0.286 ng/mL
- Tmax [11]: 120 min
- Cmax [12]: 399 ± 100 ng/g
- Tmax [12]: 4.98 min
- Cmax [13]: 450 ± 269 ng/g
- Tmax [13]: 15 min
- Cmax [14]: 168 ± 101 ng/g
- Tmax [14]: 15 min
- Cmax [15]: 527 ± 213 ng/g
- Tmax [15]: 30 min
- Cmax [16]: 592 ± 297 ng/g
- Tmax [16]: 4.98 min
- Cmax [17]: 452 ± 129 ng/g
- Tmax [17]: 15 min
- Tmax (New Zealand Composite pigmented, rabbit, iris/ciliary body, topical or ocular, 10 ug, 10 μL/eye of 1 mg/mL (10 μg)): 120 min
- Cmax (New Zealand Composite pigmented, rabbit, iris/ciliary body, topical or ocular, 10 ug, 10 μL/eye of 1 mg/mL (10 μg), heavily influenced by 2 animals at 2 hour): 262 ng/g
- Cmax [18]: 41.9 ± 37.8 ng/g
- Tmax [18]: 4.98 min
- Cmax [19]: 5.92 ± 7.26 ng/g
- Tmax [19]: 60 min
- Cmax [20]: 247000 ng/g
- Tmax [20]: 15 min
- Cmax [21]: 32000 ng/g
- Tmax [21]: 4.98 min
- Cmax [22]: 7170 ng/g
- Tmax [22]: 15 min
- AUC(0-t) [23]: 60.2 µg·h/g
- DNAUC [23]: 6020 ng*hr/g ÷ μg dose
- AUC(0-t) [24]: 18.2 µg·h/g
- DNAUC [24]: 1820 ng*hr/g ÷ μg dose
- AUC(0-t) [25]: 7.74 µg·h/g
- DNAUC [25]: 774 ng*hr/g ÷ μg dose
- exposure (absolute Cmax and AUC) (cornea, iris/ciliary body and aqueous humor): remained relatively constant
- ocular bioavailability (dose volume decreased while drug concentration in the formulation increased proportionally): increases
Structure (SMILES): Cc1ccc2c(NCC(O)(CC(C)(C)c3cc(F)cc4c3OCC4)C(F)(F)F)cccc2n1 (stereo not drawn) [BOL-303242-X]
- exposure (absolute Cmax and AUC) (tears): increases as the concentration of the drug in the dose volume increases
